{"source": "patent US4665064A", "about": "“Pharmaceutical compositions and methods for increasing zinc levels” (National Research Development Corporation, priority 1983, dated 1987)", "key": {"[1]": {"assay": "physchem", "assay_type": "physicochemical", "conditions": "for Kpart compared with maltol (compound and its 2:1 zinc complex): in words", "procedure": "A good indication of the physical properties of a ligand-providing compound and of an zinc complex in this respect is provided by the value of the partition coefficient (Kpart)obtained on partition between n-octanol and Tris hydrochloride (20 mM, pH 7.4; Tris representing 2-amino-2 hydroxymethylpropane 1,3-diol) at 20° C. and expressed as the ratio (concentration in organic phase)/(concentration in aqueous phase). Preferred complexes show a value of Kpart for each ligand-providing compound of above 0.02 or 0.05 but less than 3.0, especially of above 0.2 but less than 1.0, together with a value of Kpart for the 2:1 zinc(II) complex of above 0.02 but less than 6.0, especially of 0.05 or 0.1 to 1.0. The value of Kpart for maltol is 0.66 and for the neutral 2:1 maltol:zinc complex is 0.11 which values lie in the especially preferred ranges. It will be appreciated, however, that the wide range of ligands which may be present in zinc complexes according to the present invention allows the preparation of complexes having partition coefficients lying throughout the entire ranges given. Thus, for example, a 2:1 complex having a higher partition coefficient than 0.1 may be obtained by using maltol as one ligand and another compound as the second ligand. Alternatively, higher partition coefficients may be obtained, if desired, by the use of hydroxypyrone compounds containing additional and/or larger aliphatic hydrocarbon group substituents on the ring.\nPartition data on zinc complexes and on ligand-providing compounds\nThe partition coefficient Kpart, being the ratio (concentration in n-octanol)/(concentration in aqueous phase) on partition between n-octanol and aqueous tris hydrochloride (20 mM, pH 7.4; Tris represents 2-amino-2-hydroxymethylpropane 1,3-diol), is measured at 20° C. for zinc complexes containing various ligands and for their corresponding ligand-providing compounds as listed in Table 1. In the case of certain of the complexes the partition coefficient for the 2:1 ligand:zinc(II) complex is also measured in the presence of various amounts of the metal-free ligand-providing compound in excess of a b 1:2 zinc(II):compound ratio.\nIn each case, the material is dissolved initially in the aqueous Tris hydrochloride at a concentration of 10^-4 M in relation to zinc. The zinc complexes radiolabelled with ^65 Zn are prepared in situ in the buffer by the addition of ^65 Zn labelled ZnCl2 to an appropriate amount of the metal-free ligand-providing compound and subsequent adjustment of the pH to 7.4 by the addition of Tris free base. Acid washed glassware is used throughout and, following mixing of 5 ml of the 10^-4 M aqueous solution with 5 ml of n-octanol for 1 minute, the aqueous n-octanol mixture is centrifuged at 1,000 g for 30 seconds. […]"}, "[2]": {"tested_on": "inverted rat jejunal sac", "assay_type": "in vitro ADME, rat (male Sprague Dawley)", "conditions": "37° C., up to 1 hour, Krebs Ringer buffer", "text": "In the case of the hydroxypyrone ligands it will be seen that the uptake again increases with the increase in the amount of free compound which is present as a result of an increase in the amount of the 2:1 complex which is present."}, "[3]": {"conditions": "recognised property; in words; cited from earlier work"}, "[4]": {"tested_on": "human erythrocytes", "assay_type": "in vitro ADME", "conditions": "not told", "procedure": "The zinc complex was formed in situ in the buffered solution using ^65 Zn labelled ZnSO4 at a concentration of 0.25 mM together with maltol or ethylpyromeconic acid in a molar ratio of zinc:compound of 1:0, 1:2, 1:5, 1:10 or 1:20, i.e. the concentration of the ligand-providing compound being 0, 0.5, 1.25, 2.5 or 5 mM, respectively. The proportions of 1:2, 1:5, 1:10 and 1:20 provide an increasing amount of the neutral 2:1 zinc(II) complex together with varying amounts of the free compound as explained in Example 4, a small amount of Tris free base (to about 2 mM) being added to avoid an acid pH on reaction to form the complex.\nIt will be seen that the uptake increases with an increase in the amount of free compound present as the proportion of zinc present as the 2:1 ligand:zinc(II) complex is increased through the mass action effect."}, "[5]": {"conditions": "in words"}, "[6]": {"tested_on": "everted rat jejunum"}, "[7]": {"tested_on": "apotransferrin", "assay": "Ability of zinc complexes to donate zinc to apotransferrin", "assay_type": "biochemical", "conditions": "apotransferrin 10^-4 M, ZnSO4 10^-4 M with 10 molar proportion of maltol, pH 7.4, 37° C., 10 minutes", "procedure": "Apotransferrin (10^-4 M) and the ^65 Zn radiolabelled zinc complex of maltol (the complex being prepared in situ in the buffer using ^65 Zn radiolabelled ZnSO4 at a concentration of 10^-4 M and a 10 molar proportion of maltol) were incubated together in Tris hydrochloride (50 mM, buffered to pH 7.4) at 37° C. for 10 minutes when a 1 ml aliquot was removed from the medium and added to a PD10 column. 0.5 ml fractions were collected directly into scintillation vials for counting."}}, "note": "Read-outs that look alike come from different tables or passages of the source."}
{"smiles": "CCc1occc(=O)c1O", "note": "[ethylpyromeconic acid, 2-ethyl-3-hydroxy-4-pyrone, reference compound]", "values": [{"measurement": "Kpart compared with maltol (compound and its 2:1 zinc complex)", "setting": "[1]", "value": "higher than those for maltol"}, {"measurement": "logD", "setting": "[1]; n-octanol/tris buffer, pH 7.4", "value": -0.125}]}
{"smiles": "Cc1occc(=O)c1O", "note": "[maltol, 3-hydroxy-2-methyl-4-pyrone, reference compound]", "values": [{"measurement": "Free compound Kpart", "setting": "[1]; free ligand-providing compound, n-octanol/Tris hydrochloride 20 mM pH 7.4, 20° C.", "value": 0.66}]}
{"smiles": "CCn1cccc(O)c1=O.[Zn]", "note": "[zinc 1-ethyl-3-hydroxypyrid-2-one]", "values": [{"measurement": "Uptake of zinc into serosal compartment of rat jejunal sac", "setting": "[2]; Zinc:compound 1:2", "value": 36.4, "unit": "n. mole"}, {"measurement": "Uptake of zinc into serosal compartment of rat jejunal sac", "setting": "[2]; Zinc:compound 1:10", "value": 24.2, "unit": "n. mole"}]}
{"smiles": "CC(=O)[O-].CC(=O)[O-].[Zn+2]", "note": "[zinc acetate]", "values": [{"measurement": "emetic property", "setting": "[3]", "value": "recognised emetics"}]}
{"smiles": "CCc1occc(=O)c1[O-].CCc1occc(=O)c1[O-].[Zn+2]", "note": "[zinc ethylpyromeconic acid]", "values": [{"measurement": "uptake of the 2:1 complex in tests on the permeation of erythrocytes", "setting": "[4]", "value": "greater uptake"}, {"measurement": "Kpart compared with maltol (compound and its 2:1 zinc complex)", "setting": "[1]", "value": "higher than those for maltol"}]}
{"smiles": "Cc1occc(=O)c1O.[Zn]", "note": "[zinc maltol]", "values": [{"measurement": "lability", "setting": "[5]", "value": "extremely labile"}, {"measurement": "inhibition of the uptake of zinc", "setting": "[6]", "value": "no inhibition on the uptake of zinc"}, {"measurement": "zinc removed from the zinc complex", "setting": "[7]", "value": "over 95%"}]}
{"smiles": "O=S(=O)([O-])[O-].[Zn+2]", "note": "[zinc sulphate]", "values": [{"measurement": "emetic property", "setting": "[3]", "value": "recognised emetics"}]}
{"smiles": "[Zn+2]", "note": "[zinc]", "values": [{"measurement": "non-specific binding to the mucosal surface", "setting": "[6]", "value": "rapidly removed from the incubation medium by binding to the mucosal surface"}, {"measurement": "permeation", "setting": "[6]", "value": "little permeation occurs"}]}
